Assay results: PubChem BioAssay (NCI)
Where “and” joins values, the source holds several entries; their conditions need not be identical. Equal entries are not always repeated.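 Values below derive from 48-hour exposures of cells grown in 96-well plates, with endpoints linearly interpolated between the two concentrations bracketing the appropriate inhibition level. Abbreviation: GI50, concentration required for 50% inhibition of growth. At the TGI there is no net growth.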

Columns and labels:
Assay in all cases: growth of human tumour cells (NCI), 48 h
SF-295 CNS = system: SF-295 CNS
NCI-H522 lung = system: NCI-H522 lung
NCI-H23 lung = system: NCI-H23 lung
SK-OV-3 ovarian = system: SK-OV-3 ovarian
BT-549 breast = system: BT-549 breast
LOX IMVI melanoma = system: LOX IMVI melanoma
NCI-H226 lung = system: NCI-H226 lung
EKVX NSCLC = system: EKVX NSCLC
DU-145 prostate = system: DU-145 prostate
SF-268 CNS = system: SF-268 CNS

SMILES	GI50 (SF-295 CNS)	TGI (SF-295 CNS)	GI50 (NCI-H522 lung)	TGI (NCI-H522 lung)	GI50 (NCI-H23 lung)	TGI (NCI-H23 lung)	GI50 (SK-OV-3 ovarian)	TGI (SK-OV-3 ovarian)	GI50 (BT-549 breast)	TGI (BT-549 breast)	GI50 (LOX IMVI melanoma)	TGI (LOX IMVI melanoma)	GI50 (NCI-H226 lung)	TGI (NCI-H226 lung)	GI50 (EKVX NSCLC)	TGI (EKVX NSCLC)	GI50 (DU-145 prostate)	TGI (DU-145 prostate)	GI50 (SF-268 CNS)	TGI (SF-268 CNS)
Nc1ccc(/C=C/c2ccc3ncccc3c2)cc1	70.3 µM	> 100 µM	19.9 µM	> 100 µM	> 100 µM	> 100 µM	> 100 µM	> 100 µM	5.29 µM	> 100 µM	75 µM	> 100 µM	> 100 µM	> 100 µM	31.7 µM	> 100 µM	> 100 µM	> 100 µM	> 100 µM	> 100 µM
COc1ccc(-c2csc3c2-n2cccc2C3=O)cc1	0.0476 µM	> 75.5 µM	0.00234 µM and 0.0218 µM	0.00998 µM and 0.0802 µM	–	> 100 µM	–	5.98 µM and 25.3 µM	0.0492 µM	–	0.0349 µM	> 100 µM	0.0174 µM	–	0.597 µM	> 81.4 µM	0.0601 µM	–	0.0434 µM	> 100 µM
COC(=O)N[C@H]1CCc2cc(OC)c(OC)c(OC)c2-c2ccc(SC)c(=O)cc21	< 0.01 µM	27.1 µM	< 0.01 µM	> 19.9 µM	< 0.01 µM	> 100 µM	< 0.01 µM	> 100 µM	< 0.01 µM	11 µM	< 0.01 µM	> 100 µM	< 0.01 µM	–	< 0.01 µM	> 100 µM	< 0.01 µM	> 100 µM	< 0.01 µM	> 100 µM
CC(=O)OCC1C(=O)OCC1C(=O)N1Cc2cc3ccccc3nc2C1 (configuration not stated)	–	29.9 µM	–	2.23 µM	–	14.5 µM	–	31.1 µM	–	6.71 µM	–	5.66 µM	–	18.8 µM	–	17.3 µM	–	14 µM	–	22.6 µM
CCN(Cc1ccc(OC)cc1)c1ccc(CO)c(Cl)c1	1.31 µM	31.5 µM	16.6 µM	46.7 µM	13.7 µM	60 µM	6.7 µM	30.8 µM	12.7 µM	37.4 µM	13.2 µM	27.4 µM	0.0519 µM	0.182 µM	20.5 µM	> 83.3 µM	25.6 µM	> 100 µM	29.1 µM	> 100 µM
O=C(CCCc1ccc(N(CCCl)CCCl)cc1)NCc1ccccc1	3.23 µM	28.6 µM	6.42 µM	24.5 µM	4.77 µM	33.1 µM	7.15 µM	40.8 µM	3.86 µM	27.2 µM	5.37 µM	23.9 µM	14.6 µM	47.2 µM	21.6 µM	91.5 µM	5.04 µM	56.6 µM	5.69 µM	57.8 µM
O=C(NCc1cn(Cc2cccc(Oc3ccccc3)c2)nn1)c1cccnc1Nc1ccc(F)cc1	5.66 µM	47.6 µM	10.8 µM	> 100 µM	52.1 µM	> 100 µM	5.94 µM	36.1 µM	45.6 µM	> 100 µM	61.3 µM	> 100 µM	38.6 µM	> 100 µM	25.3 µM	> 100 µM	8.58 µM	> 100 µM	21 µM	> 100 µM
CC(C)(C)CC(C)(C)c1ccc(OCCO)cc1	1.07 µg/mL	8.56 µg/mL	1.21 µg/mL	11.1 µg/mL	1.33 µg/mL	20.9 µg/mL	11.2 µg/mL	28.6 µg/mL	2.49 µg/mL	11.9 µg/mL	2.19 µg/mL	11.2 µg/mL	2.44 µg/mL	15.8 µg/mL	1.34 µg/mL	30.1 µg/mL	9.51 µg/mL	20.6 µg/mL	8.87 µg/mL	27.3 µg/mL
COc1cc2c(c3oc(-c4ccc(O)cc4)c(O)c(=O)c13)CCC(C)(C)O2	0.0426 µM	0.194 µM	0.0776 µM	0.232 µM	0.0836 µM	0.221 µM	0.401 µM	5.4 µM	0.279 µM	0.836 µM	0.104 µM	0.328 µM	0.536 µM	2.55 µM	0.308 µM	–	0.295 µM	> 44.9 µM	0.122 µM	–
Cn1cc(-c2ccc3nc(-c4ccc(CC(=O)Nc5cc(C(C)(C)C)no5)cc4)cnc3c2)cn1	0.0563 µM	> 3 µM	0.0498 µM	> 3 µM	0.895 µM	> 3 µM	0.0938 µM	0.712 µM	0.206 µM	> 3 µM	0.036 µM	> 3 µM	0.0444 µM	> 3 µM	0.143 µM	> 3 µM	0.0296 µM	> 3 µM	0.0399 µM	> 3 µM
O=C(/C=C\c1ccc(O)c(O)c1)c1ccccc1O	17.7 µM	54.4 µM	0.214 µM	0.809 µM	12.7 µM	32.8 µM	17.7 µM	71.6 µM	3.61 µM	18.8 µM	11 µM	23.1 µM	11 µM	39.1 µM	14.4 µM	> 100 µM	11.7 µM	45.3 µM	12.1 µM	59 µM
COc1ccc(C2=NN(C(N)=S)C(c3ccc4c(c3)OCO4)C2)cc1 (configuration not stated)	2.64 µM	11.9 µM	2.4 µM	16.8 µM	3.71 µM	23.3 µM	2.35 µM	6.12 µM	2.89 µM	20.5 µM	2.19 µM	4.99 µM	2.49 µM	6.84 µM	2.54 µM	37.9 µM	1.94 µM	4.56 µM	2.79 µM	8.02 µM
